Key:
in vitro [1] = conditions: human, Caco-2
in vitro [2] = conditions: human, Caco-2; remark: listed apart in the source
[3] = Bioavailability in mouse; format: ADME, organism-based; conditions: in vivo
[4] = Tmax in mouse at 40 mg/kg, po; format: ADME, organism-based; parameters: dose 40 mg/kg, route oral; conditions: in vivo
[5] = Half life in mouse at 5 mg/kg, iv; format: ADME, organism-based; parameters: dose 5 mg/kg, route intravenous; conditions: in vivo
[6] = Half life in mouse at 40 mg/kg, po; format: ADME, organism-based; parameters: dose 40 mg/kg, route oral; conditions: in vivo
[7] = Clearance in mouse at 5 mg/kg, iv; format: ADME, organism-based; parameters: dose 5 mg/kg, route intravenous; conditions: in vivo
[8] = Volume of distribution in mouse at 5 mg/kg, iv; format: ADME, organism-based; parameters: dose 5 mg/kg, route intravenous; conditions: in vivo, read-out: Vdss
[9] = Cmax in mouse at 40 mg/kg, po; format: ADME, organism-based; parameters: dose 40 mg/kg, route oral; conditions: in vivo

| Papp A→B (in vitro [1]) [×10⁻⁶ cm/s] | Papp B→A (in vitro [2]) [×10⁻⁶ cm/s] | bioavailability [3] [%] | Tmax [4] [h] | half-life [5] [h] | half-life [6] [h] | clearance [7] [mL/min/kg] | Vd [8] [L/kg] | Cmax [9] [µM] | Compound |
| --- | --- | --- | --- | --- | --- | --- | --- | --- | --- |
| 20.9 | 16.1 |  |  |  |  |  |  |  | C#Cc1ccc2c(c1)C(=O)N([C@H](C)c1ccc(Cl)cc1)[C@@H](c1ccc(Cl)cc1)C(=O)N2CCCCC(=O)O |
| 19.9 | 9.1 |  |  |  |  |  |  |  | CC#Cc1ccc2c(c1)C(=O)N([C@H](C)c1ccc(Cl)cc1)[C@@H](c1ccc(Cl)cc1)C(=O)N2CCCCC(=O)O |
| 7.34 | 13 | 100 | 6 | 3.1 | 2.5 | 13.2 | 3 | 6.3 | C[C@H](c1ccc(Cl)cc1)N1C(=O)c2cc(I)ccc2N(CCCCC(=O)O)C(=O)[C@@H]1c1ccc(Cl)cc1 |

Source: ChEMBL document CHEMBL1147820, “Enhanced pharmacokinetic properties of 1,4-benzodiazepine-2,5-dione antagonists of the HDM2-p53 protein-protein interaction through structure-based drug design” (Bioorg Med Chem Lett, 2006)
